Activity calls are given as the source filed them. The calls are words filed in the database; no cut-off is given here.
Experiments:
[1] = Cytotoxicity against human MCF-10A cells assessed as reduction in cell viability incubated for 72 hrs by MTT assay; format: toxicity, cell-based
MDA-MB-231 [2] = experiment: Anti-migration activity in human MDA-MB-231 cells assessed as inhibition of cell invasion incubated for 72 hrs by Transwell assay; format: functional, cell-based; conditions: dose 1-25 µM
MDA-MB-231 [3] = experiment: Induction of apoptosis in human MDA-MB-231 cells assessed as viable cells at 2.5 uM incubated for 48 hrs by AnnexinV-FITC/PI staining based flow cytometry (reference value: 91.22 to 92.84%); format: functional; conditions: read-out: Activity
MDA-MB-231 [4] = experiment: Induction of apoptosis in human MDA-MB-231 cells assessed as viable cells at 10 uM incubated for 48 hrs by AnnexinV-FITC/PI staining based flow cytometry (reference value: 91.22 to 92.84%); format: functional; conditions: read-out: Activity
MDA-MB-231 [5] = experiment: Induction of apoptosis in human MDA-MB-231 cells assessed as late apoptotic cells at 10 uM incubated for 48 hrs by AnnexinV-FITC/PI staining based flow cytometry (reference value: 3.77 to 3.84%); format: functional
MDA-MB-231 [6] = experiment: Induction of apoptosis in human MDA-MB-231 cells assessed as late apoptotic cells at 25 uM incubated for 48 hrs by AnnexinV-FITC/PI staining based flow cytometry (reference value: 3.77 to 3.84%); format: functional
MDA-MB-231 [7] = experiment: Induction of apoptosis in human MDA-MB-231 cells assessed as necrotic cells at 25 uM incubated for 48 hrs by AnnexinV-FITC/PI staining based flow cytometry (reference value: 1.79 to 2.53%); format: functional
MDA-MB-231 [8] = experiment: Induction of apoptosis in human MDA-MB-231 cells assessed as upregulation of cleaved PARP level at 1 to 25 uM incubated for 48 hrs by western blot analysis; format: functional, cell-based; conditions: dose 1-25 µM
MDA-MB-231 [9] = experiment: Induction of apoptosis in human MDA-MB-231 cells assessed as upregulation of cleaved caspase 8 level at 1 to 25 uM incubated for 48 hrs by western blot analysis; format: functional, cell-based; conditions: dose 1-25 µM
MDA-MB-231 [10] = experiment: Induction of cell cycle arrest in human MDA-MB-231 cells assessed as accumulation of cells at S phase at 2.5 uM incubated for 48 hrs by PI staining based flow cytometry (reference value: 12.56 to 14.76%); format: functional
MDA-MB-231 [11] = experiment: Induction of cell cycle arrest in human MDA-MB-231 cells assessed as accumulation of cells at G0/G1 phase at 25 uM incubated for 48 hrs by PI staining based flow cytometry (reference value: 55.36 to 55.82%); format: functional

For CC(c1ccc2ncccc2c1)n1nnc2ncc(N3CCN(Cc4ccc(/C=C/C(=O)Nc5ccccc5N)cc4)CC3)nc21 (stereo unspecified), the IC50 at 72 h [1] was over 25 µM, the Activity (MDA-MB-231 [2]) was “Dose-Dependent Effect” and the viability at 2.5 µM (MDA-MB-231 [3]) was 84.3%. For the same compound, the viability at 10 µM (MDA-MB-231 [4]) was 83.1%, the Activity (MDA-MB-231 [5]) was 10.69% and the Activity (MDA-MB-231 [6]) was 12.3%. The Activity (MDA-MB-231 [7]) was 1.42%, the Activity (MDA-MB-231 [8]) was “Active” and the Activity (MDA-MB-231 [9]) was “Active”. For the same compound, the Activity (MDA-MB-231 [10]) was 9.53% and the Activity (MDA-MB-231 [11]) was 83.37%.
